In US7812050B2, “Polymorphic form of fluoro-7-(2,2,2-trifluoroethoxy) phenoxathiin-10,10-dioxide” (CeNeRx BioPharma, Inc., priority 2006, dated 2010):

How the values were obtained:
[1] = Particle size by light diffraction (Sympatec HELOS, dry powder dispersion); assay type: physicochemical
Description: Dispersion was performed on a sample of Form A of 3-fluoro-7-(2,2,2-trifluoroethoxy)phenoxathiin-10,10-dioxide produced accordance with the method presented in Example 4. Dispersion pressure of 0.5 to 2.0 bar was used to disperse the sample particles. Samples were analyzed by microscopy prior to particle size analysis to assess aggregation and estimate particle size, and without fracturing primary particles or causing aggregation. […] Particle size was measured using a Sympatec HELOS equipped with VIERI dry powder feeder unit, and sample measurements for optimization of jet pressure and repeatability were performed according to USP<429>, Method Validation Protocol ANC00756, and TM-1509 Rev.00 (draft).

[2] = Dissolution temperature in 10% (v/v) water in acetic acid; assay type: physicochemical; conditions: ratio (w/v) of compound to solvent about 1.6 g: 10 mL

Which x10 ([1]; Dispersion Pressure 0.5 bar) does the source give for `O=S1(=O)c2ccc(F)cc2Oc2cc(OCC(F)(F)F)ccc21` [Form A, 3-fluoro-7-(2,2,2-trifluoroethoxy)phenoxathiin-10,10-dioxide] here?
The x10 was 3.05 μm.

What about the x50 ([1]; Dispersion Pressure 0.5 bar) of the same compound?
The x50 was 9.07 μm.

And the x90 ([1]; Dispersion Pressure 0.5 bar)?
The x90 was 24.49 μm.

What about the x10 ([1]; Dispersion Pressure 1 bar) of the same compound?
The x10 was 2.54 μm.

And the x50 ([1]; Dispersion Pressure 1 bar)?
The x50 was 7.96 μm.

And the x90 ([1]; Dispersion Pressure 1 bar)?
Its x90 is 19.32 μm.

What about the x10 ([1]; Dispersion Pressure 1.5 bar) of the same compound?
Its x10 is 2.21 μm.

What about the x50 ([1]; Dispersion Pressure 1.5 bar) of the same compound?
The x50 was 7.35 μm.

What about the x90 ([1]; Dispersion Pressure 1.5 bar) of the same compound?
The x90 was 17.1 μm.

And the x10 ([1]; Dispersion Pressure 2 bar)?
Its x10 is 1.94 μm.

And the x50 ([1]; Dispersion Pressure 2 bar)?
The x50 was 6.88 μm.

What about the x90 ([1]; Dispersion Pressure 2 bar) of the same compound?
Its x90 is 15.32 μm.

What about the “temperature at which the form dissolves” value [2] of the same compound?
The value was 75-85 °C.
